Legend:
[1] = system: barnyardgrass; assay: Test A preemergence; assay type: in vivo, Echinochloa crus-galli; conditions: preemergence
How it was run: (§1)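 Both timings tested concurrently in loam/sand soil: preemergence by directed soil spray, postemergence on plants of 2–10 cm at the one- to two-leaf stage. Greenhouse holding period was approximately 10 days before visual injury assessment (0–100, 0 = no effect).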

[2] = system: pigweed; assay: Test A preemergence; assay type: in vivo, Amaranthus retroflexus; conditions: preemergence
How it was run: as §1

[3] = system: velvetleaf; assay: Test A preemergence; assay type: in vivo, Abutilon theophrasti; conditions: preemergence
How it was run: as §1

[4] = system: pigweed; assay: Test A postemergence; assay type: in vivo, Amaranthus retroflexus
How it was run: as §1

[5] = system: velvetleaf; assay: Test A postemergence; assay type: in vivo, Abutilon theophrasti
How it was run: as §1

[6] = system: foxtail, giant; assay: Test C preemergence; assay type: in vivo, Setaria faberii; conditions: for Foxtail, Giant plant response rating: preemergence
How it was run: (§2)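 Greenhouse pot test: preemergence application onto freshly seeded loam/sand mix, postemergence application onto seedlings (1–4 leaves, 2–18 cm) in peat-vermiculite substrate. Responses scored visually 13 to 15 days later relative to controls, where 0 means no effect and 100 means complete control; a dash indicates no result.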

[7] = system: johnsongrass; assay: Test C preemergence; assay type: in vivo, Sorghum halepense; conditions: for Johnsongrass plant response rating: preemergence
How it was run: as §2

[8] = system: ragweed; assay: Test C preemergence; assay type: in vivo, Ambrosia elation; conditions: for Ragweed plant response rating: preemergence
How it was run: as §2

[9] = system: soybean; assay: Test C preemergence; assay type: in vivo, Glycine max; conditions: for Soybean plant response rating: preemergence
How it was run: as §2

[10] = system: corn; assay: Test C postemergence; assay type: in vivo, Zea mays; conditions: postemergence
How it was run: as §2

[11] = system: johnsongrass; assay: Test C postemergence; assay type: in vivo, Sorghum halepense; conditions: for Plant response rating, Johnsongrass: postemergence
How it was run: as §2

[12] = system: lambsquarters; assay: Test C postemergence; assay type: in vivo, Chenopodium album
How it was run: as §2

[13] = system: waterhemp; assay: Test C postemergence; assay type: in vivo, Amaranthus rudis
How it was run: as §2

[14] = 125 g ai/ha, visual injury, 0 to 100 scale, approx. 10 days
[15] = 500 g ai/ha, visual injury after approx. 10 days, 0 to 100 scale (0 no effect, 100 complete control)
[16] = Postemergence, 500 g ai/ha, visual rating after approx. 10 days, 0 to 100 scale (0 no effect, 100 complete control)
[17] = postemergence, 125 g ai/ha, about 10 days, visual rating on 0 to 100 scale (0 no effect, 100 complete control)
[18] = 31 g ai/ha, visual rating, scale 0 to 100 (0 no effect, 100 complete control), 13 to 15 days
[19] = 62 g ai/ha, scale 0 to 100 (0 no effect, 100 complete control), 13 to 15 days
[20] = 125 g ai/ha, scale 0 to 100, 0 is no effect, 100 is complete control
[21] = 250 g ai/ha, scale 0 to 100 (0 no effect, 100 complete control)
[22] = 125 g ai/ha, scale 0 to 100, 0 no effect, 100 complete control
[23] = Postemergence, 31 g ai/ha, visually evaluated after 13 to 15 days
[24] = postemergence, 62 g ai/ha, scale 0 to 100
[25] = postemergence, 250 g ai/ha, scale 0 to 100 (0 no effect, 100 complete control)
[26] = postemergence, 125 g ai/ha, scale 0 to 100, 0 no effect, 100 complete control

For `CCc1cc(-c2ccc(C(F)(F)F)cc2)nn1Cc1ccnc(C(F)(F)F)c1` [Compound 110], the “Barnyardgrass plant response rating” value [1, 14] was 100, the “Barnyardgrass plant response rating” value [1, 15] was 100 and the “Pigweed plant response rating” value [2, 14] was 100. The “Pigweed plant response rating” value [2, 15] was 100, the “Velvetleaf plant response rating” value [3, 14] was 90 and the “Velvetleaf plant response rating” value [3, 15] was 100. For the same molecule, the “Pigweed plant response rating” value [4, 16] was 100, the “Pigweed plant response rating” value [4, 17] was 100 and the “Velvetleaf plant response rating” value [5, 16] was 100. The “Velvetleaf plant response rating” value [5, 17] was 90, the “Plant response rating (scale of 0 to 100), Foxtail, Giant” value ([6]; Preemergence, 250 g ai/ha) was 100 and the “Foxtail, Giant plant response rating” value [6, 18] was 98. For the same molecule, the “Foxtail, Giant plant response rating” value [6, 19] was 98, the “Foxtail, Giant plant response rating” value [6, 20] was 100 and the “Plant response rating (scale of 0 to 100), Johnsongrass” value ([7]; Preemergence, 250 g ai/ha) was 95. The “Johnsongrass plant response rating” value [7, 18] was 15, the “Johnsongrass plant response rating” value [7, 19] was 30 and the “Johnsongrass plant response rating” value [7, 20] was 80. The “Plant response rating (scale of 0 to 100), Ragweed” value ([8]; Preemergence, 250 g ai/ha) was 75, the “Ragweed plant response rating” value [8, 18] was 35 and the “Ragweed plant response rating” value [8, 19] was 35. The “Ragweed plant response rating” value [8, 20] was 60, the “Plant response rating (scale of 0 to 100), Soybean” value ([9]; Preemergence, 250 g ai/ha) was 20 and the “Soybean plant response rating” value [9, 18] was 10. For the same molecule, the “Soybean plant response rating” value [9, 20] was 15, the “Corn plant response rating” value ([10]; 62 g ai/ha, scale 0 to 100) was 15 and the “Plant response rating, Corn” value [10, 21] was 25. The “Plant response rating, Corn” value [10, 22] was 25, the “Plant response rating (scale of 0 to 100 where 0 is no effect and 100 is complete control), Johnsongrass” value [11, 23] was 40 and the “Plant response rating, Johnsongrass” value [11, 21] was 90. The “Plant response rating, Johnsongrass” value [11, 22] was 75, the “Plant response rating (scale of 0 to 100 where 0 is no effect and 100 is complete control), Lambsquarters” value [12, 23] was 40 and the “Lambsquarters plant response rating” value [12, 24] was 75. The “Plant response rating, Lambsquarters” value [12, 25] was 98, the “Plant response rating, Lambsquarters” value [12, 26] was 85 and the “Plant response rating (scale of 0 to 100 where 0 is no effect and 100 is complete control), Waterhemp” value [13, 23] was 100. For the same molecule, the “Waterhemp plant response rating” value [13, 24] was 100, the “Plant response rating, Waterhemp” value [13, 25] was 100 and the “Plant response rating, Waterhemp” value [13, 26] was 100.
